Five molecules from ChEMBL document CHEMBL1158034, “Synthesis and cytotoxicity of racemic isodeoxypodophyllotoxin analogues with isoprene-derived side chains” (J Nat Prod, 2006) can be followed below.

Holding throughout (type): functional, cell-based
One experiment concerns A549. Put plainly: Cytotoxicity against human A549 cells after 72 hrs by MTT assay. To be noted: A549, 72 h. A general note: Tetrazolium dyes change colour on reduction, which living cells bring about.
The nature of experiment [1]: Cytotoxicity against human BEL-7404 cells after 72 hrs by MTT assay. The conditions noted are these: BEL-7404, 72 h.
The next experiment relates to KB. Nature of the experiment: Cytotoxicity against human KB cells after 72 hrs by MTT assay.
The subject of another experiment is HL-60. Nature of the experiment: Cytotoxicity against human HL-60 cells after 72 hrs by MTT assay. To be noted: HL-60, 72 h.

Usually IC50 stands for the concentration that inhibits the measured activity by half. A higher IC50 goes with weaker potency. Turning to `COC(=O)[C@H]1[C@H](CO)Cc2cc(OC)c(OC)c(OC)c2[C@@H]1c1ccc(O)c(OC)c1` (racemic), the 50% inhibitory concentration (IC50) in the experiment with A549 came to 14.5 µM.
Consider `COc1cc2c(cc1OC)[C@H](c1ccc(OC)c(OC/C=C(\C)CC/C=C(\C)CCC=C(C)C)c1)[C@H]1C(=O)OC[C@@H]1C2` (racemic), for which the IC50 in experiment [1] was determined as 5.63 µM; with KB, 3.76 µM.
Consider `COc1cc([C@@H]2c3cc4c(cc3[C@@H](O[C@@H]3O[C@@H]5CO[C@@H](C)O[C@H]5[C@H](O)[C@H]3O)[C@H]3COC(=O)[C@H]23)OCO4)cc(OC)c1O` [ETOPOSIDE], for which, in the experiment with HL-60, the IC50 came out at 10.5 µM.
In the case of `COc1cc2c(cc1OC)[C@H](c1ccc(OCc3ccccc3)c(OC)c1)[C@H]1C(=O)OC[C@@H]1C2` (racemic), the IC50 in experiment [1] was found to be 14.8 µM; with KB, 2.65 µM.
In turn, `COC(=O)[C@H]1[C@H](CO)Cc2cc(OC)c(OC)c(OC)c2[C@@H]1c1ccc(OC/C=C(\C)CCC=C(C)C)c(OC)c1` (racemic) returned a half-inhibitory concentration (IC50) with HL-60 of 4.54 µM.
